According to patent US7998965B2, “Glutamate aggrecanase inhibitors” (Wyeth LLC, priority 2005, dated 2011):
Where two headings read alike, the source gives them in different places. Blank lines part the entries; values can stand above or below the molecule they belong to.

How the values were obtained:
[1] = biological target: T1, purified recombinant human Aggrecanase-1 (rAgg1) (Homo sapiens, UniProt O75173); experiment: In vitro fluorescence screen for Aggrecanase-1 inhibitors; format: biochemical; conditions: for IC50: read-out: Agg1 IC50; for Ki: read-out: Ki Agg1
T1 sequence (O75173 213-837): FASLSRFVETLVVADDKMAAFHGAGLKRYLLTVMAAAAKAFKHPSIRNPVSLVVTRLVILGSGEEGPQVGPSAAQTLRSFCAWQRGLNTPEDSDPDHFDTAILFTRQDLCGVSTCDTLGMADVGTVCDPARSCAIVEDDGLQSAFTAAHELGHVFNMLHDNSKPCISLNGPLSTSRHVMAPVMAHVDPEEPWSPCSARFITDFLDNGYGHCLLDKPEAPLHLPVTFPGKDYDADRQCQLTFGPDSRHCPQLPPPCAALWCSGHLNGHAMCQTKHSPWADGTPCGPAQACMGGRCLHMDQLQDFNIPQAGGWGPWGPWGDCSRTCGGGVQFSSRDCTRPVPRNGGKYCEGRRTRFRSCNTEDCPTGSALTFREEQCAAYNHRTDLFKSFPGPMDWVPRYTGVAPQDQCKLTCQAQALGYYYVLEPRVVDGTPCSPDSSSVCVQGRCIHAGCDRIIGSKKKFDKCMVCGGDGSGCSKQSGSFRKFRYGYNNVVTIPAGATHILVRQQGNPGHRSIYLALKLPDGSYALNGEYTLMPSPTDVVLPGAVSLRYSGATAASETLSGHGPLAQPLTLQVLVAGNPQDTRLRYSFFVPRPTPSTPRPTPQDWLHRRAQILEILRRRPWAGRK

[2] = biological target: T2, purified recombinant human Aggrecanase-2 (Ag2t-Phe628-Strep) (Homo sapiens, UniProt Q9UNA0); experiment: In vitro fluorescence screen for Aggrecanase-2 inhibitors; format: biochemical; conditions: for IC50: read-out: Agg 2 IC50; for Ki: read-out: Ki Agg2
T2 construct: the form used is denoted as Ag2t-Phe628-Strep (MW=41,737)
T2 sequence (Q9UNA0 262-628): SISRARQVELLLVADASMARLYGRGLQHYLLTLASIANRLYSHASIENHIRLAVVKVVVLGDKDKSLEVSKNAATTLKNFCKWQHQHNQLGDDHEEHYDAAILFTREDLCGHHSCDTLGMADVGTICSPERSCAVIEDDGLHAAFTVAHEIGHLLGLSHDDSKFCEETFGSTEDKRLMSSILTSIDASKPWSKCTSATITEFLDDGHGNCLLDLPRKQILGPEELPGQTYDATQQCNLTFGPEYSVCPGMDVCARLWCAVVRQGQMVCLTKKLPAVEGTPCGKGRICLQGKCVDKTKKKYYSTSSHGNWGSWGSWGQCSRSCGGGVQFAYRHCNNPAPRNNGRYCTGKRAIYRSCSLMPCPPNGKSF

SMILES: COc1cc(CNC(=O)[C@H](CCC(=O)O)NC(=O)C2c3ccccc3-c3ccccc32)cc(OC)c1OC [Example 8VVVV, N^2-(9H-fluoren-9-ylcarbonyl)-N^1-(3,4,5-trimethoxybenzyl)-L-α-glutamine]
IC50 ([1]; Table 2): > 17 µM | IC50 ([2]; Table 2): > 67 µM

SMILES: C[C@@H](NC(=O)[C@H](CCC(=O)O)NC(=O)c1ccc2c(c1)Cc1ccccc1-2)c1ccccc1 [Example 8VVVVV, N^2-(9H-fluoren-2-ylcarbonyl)-N^1-[(1R)-1-phenylethyl]-L-α-glutamine]
IC50 ([1]; Table 2): 0.221 µM | IC50 ([2]; Table 2): 1.56 µM

SMILES: COc1cc(CNC(=O)[C@H](CCC(=O)O)NC(=O)c2cccc(Oc3ccccc3)c2)cc(OC)c1OC [Example 8WWWW, N^2-(3-phenoxybenzoyl)-N^1-(3,4,5-trimethoxybenzyl)-L-α-glutamine]
IC50 ([1]; Table 2): 8.3 µM | IC50 ([2]; Table 2): > 67 µM

SMILES: O=C(O)CC[C@H](NC(=O)c1cccc2c1Cc1ccccc1-2)C(=O)NCCCCCCO [Example 8WWWWW, N^2-(9H-fluoren-1-ylcarbonyl)-N^1-(6-hydroxyhexyl)-L-α-glutamine]
IC50 ([1]; Table 2): > 17 µM | IC50 ([2]; Table 2): > 67 µM

SMILES: COc1cc(CNC(=O)[C@H](CCC(=O)O)NC(=O)c2cccc3c2-c2ccccc2C3)cc(OC)c1OC [Example 8XXXX, N^2-(9H-fluoren-4-ylcarbonyl)-N^1-(3,4,5-trimethoxybenzyl)-L-α-glutamine]
IC50 ([1]; Table 2): > 50 µM | IC50 ([2]; Table 2): > 200 µM

SMILES: O=C(O)CC[C@H](NC(=O)c1ccc2c(c1)C(=O)c1ccccc1-2)C(=O)NCCCCCCO [Example 8XXXXX, N^1-(6-hydroxyhexyl)-N^2-[(9-oxo-9H-fluoren-2-yl)carbonyl]-L-α-glutamine]
IC50 ([1]; Table 2): 0.246 µM | IC50 ([2]; Table 2): 1.45 µM

SMILES: CC(C)(Cc1ccc(Cl)cc1)NC(=O)[C@H](CCC(=O)O)NC(=O)c1ccc(-c2cccs2)cc1 [Example 8XXXXXXX, N-[2-(4-chlorophenyl)-1,1-dimethylethyl]-N^2-[4-(2-thienyl)benzoyl]-L-α-glutamine]
IC50 ([1]; Table 3): < 0.03 µM | Ki ([1]; Table 3): 0.0045 µM | IC50 ([2]; Table 3): 0.02 to 0.07 µM | Ki ([2]; Table 3): 0.056 µM

SMILES: CC(C)(Cc1ccc(Cl)cc1)NC(=O)[C@H](CCC(=O)O)NC(=O)c1ccc(-c2ccccc2)nc1 [Example 8XXXXXXXX, N-[2-(4-chlorophenyl)-1,1-dimethylethyl]-N^2-[(6-phenylpyridin-3-yl)carbonyl]-L-α-glutamine]
IC50 ([1]; Table 3): 0.1 µM | IC50 ([2]; Table 3): 1.7 µM

SMILES: O=C(O)CC[C@H](NC(=O)c1ccc2c(c1)C(=O)c1ccccc1-2)C(=O)NC12CC3CC(CC(C3)C1)C2 [Example 8YYYY, N^1-1-adamantyl-N^2-[(9-oxo-9H-fluoren-2-yl)carbonyl]-L-α-glutamine]
IC50 ([1]; Table 2): 1.5 µM | IC50 ([2]; Table 2): > 200 µM

SMILES: COc1cccc(-c2ccc(C(=O)N[C@@H](CCC(=O)O)C(=O)NC(C)(C)Cc3ccc(Cl)cc3)s2)c1 [Example 8YYYYYYY, N-[2-(4-chlorophenyl)-1,1-dimethylethyl]-N^2-{[5-(3-methoxyphenyl)-2-thienyl]carbonyl}-L-α-glutamine]
IC50 ([1]; Table 3): < 0.03 µM | Ki ([1]; Table 3): 0.027 µM | IC50 ([2]; Table 3): 0.2 to 0.6 µM | Ki ([2]; Table 3): 0.197 µM

SMILES: O=C(O)CC[C@H](NC(=O)c1ccc(Oc2ccccc2)cc1)C(=O)NC12CC3CC(CC(C3)C1)C2 [Example 8ZZZZ, N^1-1-adamantyl-N^2-(4-phenoxybenzoyl)-L-α-glutamine]
IC50 ([1]; Table 2): > 17 µM | IC50 ([2]; Table 2): > 22 µM

SMILES: CC(C)(Cc1ccc(Cl)cc1)NC(=O)[C@H](CCC(=O)O)NC(=O)c1ccc(-c2ccc(F)c(F)c2)cc1 [Example 8ZZZZZZ, N-[2-(4-chlorophenyl)-1,1-dimethylethyl]-N^2-[(3′,4′-difluorobiphenyl-4-yl)carbonyl]-L-α-glutamine]
IC50 ([1]; Table 3): < 0.03 µM | IC50 ([2]; Table 3): 0.12 µM

SMILES: CC(C)(Cc1ccc(Cl)cc1)NC(=O)[C@H](CCC(=O)O)NC(=O)c1ccc(-c2ccccc2)s1 [Example 8ZZZZZZZ, N-[2-(4-chlorophenyl)-1,1-dimethylethyl]-N^2-[(5-phenyl-2-thienyl)carbonyl]-L-α-glutamine]
IC50 ([1]; Table 3): < 0.03 µM | Ki ([1]; Table 3): 0.0127 µM | IC50 ([2]; Table 3): 0.2 to 0.6 µM | Ki ([2]; Table 3): 0.29 µM

SMILES: CC(C)(Cc1ccc(F)cc1)NC(=O)[C@H](CCC(=O)O)NC(=O)c1ccc(-c2cccnc2)s1 [Example 8ZZZZZZZZ, N-[2-(4-fluorophenyl)-1,1-dimethylethyl]-N^2-[(5-pyridin-3-yl-2-thienyl)carbonyl]-L-α-glutamine]
IC50 ([1]; Table 3): 0.02 to 0.07 µM | IC50 ([2]; Table 3): 9.9 µM

More lines, now with the values ahead:

IC50 ([1]; Table 1): 0.53 µM | IC50 ([2]; Table 1): 4.5 µM
SMILES: O=C(O)CC[C@H](NC(=O)c1ccc(-c2ccccc2)cc1)C(=O)NCCc1cccc(Cl)c1 [Example 8YY, N^2-(1,1′-biphenyl-4-ylcarbonyl)-N^1-[2-(3-chlorophenyl)ethyl]-L-α-glutamine]

IC50 ([1]; Table 1): 0.84 µM | IC50 ([2]; Table 1): 2.1 µM
SMILES: O=C(O)CC[C@H](NC(=O)c1ccc(-c2ccccc2)cc1)C(=O)NCCc1ccc(-c2ccc(C(F)(F)F)cc2)cc1 [Example 10A, N^2-(biphenyl-4-ylcarbonyl)-N^1-{2-[4′-(trifluoromethyl)biphenyl-4-yl]ethyl}-L-α-glutamine]

IC50 ([1]; Table 1): 0.24 µM | IC50 ([2]; Table 1): > 5 µM
SMILES: O=C(O)CC[C@H](NC(=O)c1ccc(-c2ccccc2)cc1)C(=O)NCCc1ccc(-c2ccccc2)cc1 [Example 10C, N^2-(biphenyl-4-ylcarbonyl)-N^1-(2-biphenyl-4-ylethyl)-L-α-glutamine]

IC50 ([1]; Table 1): 0.48 µM | IC50 ([2]; Table 1): 3.2 µM
SMILES: O=C(O)CC[C@H](NC(=O)c1ccc(-c2ccccc2)cc1)C(=O)NCCc1ccc(-c2cccs2)cc1 [Example 10D, N^2-(biphenyl-4-ylcarbonyl)-N^1-{2-[4-(2-thienyl)phenyl]ethyl}-L-α-glutamine]

IC50 ([1]; Table 1): 0.13 µM | IC50 ([2]; Table 1): > 30 µM
SMILES: C#Cc1ccc(-c2ccc(CCNC(=O)[C@H](CCC(=O)O)NC(=O)c3ccc(-c4ccccc4)cc3)cc2)cc1 [Example 10F, N^2-(biphenyl-4-ylcarbonyl)-N^1-[2-(4′-ethynylbiphenyl-4-yl)ethyl]-L-α-glutamine]

IC50 ([1]; Table 1): 1 µM | IC50 ([2]; Table 1): 4.4 µM
SMILES: O=C(O)CC[C@H](NC(=O)c1ccc(-c2ccccc2)cc1)C(=O)NCCc1ccc(-c2ccccn2)cc1 [Example 10G, N^2-(biphenyl-4-ylcarbonyl)-N^1-[2-(4-pyridin-2-ylphenyl)ethyl]-L-α-glutamine]

IC50 ([1]; Table 1): 0.38 µM | IC50 ([2]; Table 1): > 100 µM
SMILES: O=C(O)CC[C@H](NC(=O)c1ccc(-c2ccccc2)cc1)C(=O)NCCc1cccc(-c2ccc(C(F)(F)F)cc2)c1 [Example 10K, N^2-(biphenyl-4-ylcarbonyl)-N^1-{2-[4′-(trifluoromethyl)biphenyl-3-yl]ethyl}-L-α-glutamine]

IC50 ([1]; Table 1): 0.13 µM | IC50 ([2]; Table 1): 2 µM
SMILES: COc1ccc(-c2cccc(CCNC(=O)[C@H](CCC(=O)O)NC(=O)c3ccc(-c4ccccc4)cc3)c2)cc1 [Example 10L, N^2-(biphenyl-4-ylcarbonyl)-N^1-[2-(4′-methoxybiphenyl-3-yl)ethyl]-L-α-glutamine]

IC50 ([1]; Table 2): ~3 µM | IC50 ([2]; Table 2): 3 to 8 µM
SMILES: O=C(O)CC[C@H](NC(=O)c1ccc(-c2ccc3ccccc3c2)cc1)C(=O)NCc1ccccc1 [Example 12F, N-benzyl-N^2-[4-(2-naphthyl)benzoyl]-L-α-glutamine]

IC50 ([1]; Table 2): > 25 µM | IC50 ([2]; Table 2): 11.7 µM
SMILES: O=C(O)CC[C@H](NC(=O)c1ccc(C#Cc2ccccc2)cc1)C(=O)NCc1ccccc1 [Example 12G, N-benzyl-N^2-[4-(phenylethynyl)benzoyl]-L-α-glutamine]

IC50 ([1]; Table 2): 1.2 µM | IC50 ([2]; Table 2): 1.63 µM
SMILES: O=C(O)CC[C@H](NC(=O)c1ccc(C#CC2(O)c3ccccc3-c3ccccc32)cc1)C(=O)NCc1ccccc1 [Example 12H, N-benzyl-N^2-{4-[(9-hydroxy-9H-fluoren-9-yl)ethynyl]benzoyl}-L-α-glutamine]

IC50 ([1]; Table 2): > 25 µM | IC50 ([2]; Table 2): > 20 µM
SMILES: O=C(O)CC[C@H](NC(=O)c1ccc(/C=C/C(=O)c2ccccc2)cc1)C(=O)NCc1ccccc1 [Example 12I, N-benzyl-N^2-{4-[(1E)-3-oxo-3-phenylprop-1-en-1-yl]benzoyl}-L-α-glutamine]

IC50 ([1]; Table 2): ~8 µM | IC50 ([2]; Table 2): ~22 µM
SMILES: Nc1cccc(C#Cc2ccc(C(=O)N[C@@H](CCC(=O)O)C(=O)NCc3ccccc3)cc2)c1 [Example 12J, N^2-{4-[(3-aminophenyl)ethynyl]benzoyl}-N-benzyl-L-α-glutamine]

IC50 ([1]; Table 2): ~25 µM | IC50 ([2]; Table 2): > 22 µM
SMILES: O=C(O)CC[C@H](NC(=O)c1ccc(C#CC(O)(c2ccccc2)c2ccccc2)cc1)C(=O)NCc1ccccc1 [Example 12K, N-benzyl-N^2-[4-(3-hydroxy-3,3-diphenylprop-1-yn-1-yl)benzoyl]-L-α-glutamine]
